Laboratory results from patent US20220387368A1, “AN INHIBITOR OF AN IRON-CONTAINING HYDROGENASE OF A METHANOGENIC ARCHAEON FOR USE IN THE TREATMENT OR PREVENTION OF A PARKINSONIAN CONDITION” (UNIVERSITE DU LUXEMBOURG, priority 2019, published 2022).

How the values were obtained:
[1] = tested on: HiTox strains of yeast expressing human alpha-synuclein; test: Yeast growth toxicity assay, HiTox strain; assay type: cell-based
Procedure: (§1) Yeast cells were grown in synthetic complement (SC) media containing 6.7 g/L yeast nitrogen base without amino acids, 5 g/L ammonium sulfate supplemented with 2 g/L SC. Media was autoclaved and the carbon source (8% raffinose or galactose) was added to a final concentration of 2%.
(§2) Four fresh single colonies of the Hitox strain and its respective control strain were inoculated from SC-2% glucose plates into 5 mL SC-2% raffinose and incubated overnight with shaking (200 rpm) at 30° C. After ≈20 h, overnight cultures were diluted to OD 0.5 and 2 μL of the yeast cultivation was added to 78 μL drug containing media to a final optical density of 0.0125 in a 384-well microplate. 2-HP was diluted in SC-2% raffinose/galactose and tested at different concentrations (1-100 mM). Finally, the plates are measured in a microplate reader (TECAN™ Infinite M200Pro), at an interval of 10 minutes during 72 h at 30° C. Yeast growth phenotyping was performed as previous described (Jung et al. 2015). Final biomass was corrected using the GATHODE software (Jung et al., 2015). The OD600 at 48 h was taken for the quantification.

control strain = test: Yeast growth toxicity assay, control strain; assay type: cell-based
Procedure: as §1, §2

enteric neurons = test: Enteric neuron cell viability (MTT) assay; assay type: cell-based; conditions: 24 h treatment, MTT (FIG. 5)
Procedure: Enteric neurons were cultured in differentiation medium, consisting on Neurobasal (Invitrogen, 21103049) supplemented with 1:200 N2 (Invitrogen, 17502048), 1:100 L-Glutamine (Invitrogen, 25030-024), 1:100 B-27 without Vitamin A (Life Technologies, 12587-010), 1:100 Penicillin/Streptomycin (Invitrogen, 15140122), 25 ng/mL GDNF (Peprotech, 450-10) and 100 μM Ascorbic Acid (Sigma, A5960). Cells were cultured for 21 days in a 6-well plate, then detached with Accutase (Sigma, A6964), and replated into a 96-well plate. Cells were maintained under differentiating conditions until day 31, when they were treated with increasing concentrations of 2-hydroxypyridine (Sigma, H56800). Tested concentrations were as follows: 1 μM, 3 μM, 6 μM, 10 μM, 30 μM, 60 μM, 100 μM, 300 μM, 600 μM, 1 mM and 3 mM.
2-Hydroxypyridine was reconstituted to 10 mM in the differentiation medium described above.
Cells were treated for 24 h, then cell viability was assessed performing a Tetrazolium (MTT) assay. Thiazolyl Blue tetrazolium Bromide (Sigma, M5655) was reconstituted to a 5 mg/mL solution in differentiation media and filtered. 10 μL of the solution were then added to every well containing 100 μL of media. Plate was incubated for 2 h in a normal incubator (37° C., 5% CO2). […] Cells were disaggregated by pipetting vigorously and absorbance was read at 570 nm, using the microplate Cytation 5M reader (Biotek).

alpha-synuclein = target: T1, alpha-synuclein (Homo sapiens, UniProt P37840); test: Alpha-synuclein aggregation; conditions: in contact with alpha-synuclein
T1 construct: expressed in transfected cells; host or cells: HiTox yeast strains, galactose-inducible expression
Procedure: The aggregation of alpha-synuclein is the key molecular hallmark of PD.
The following abbreviations have the meaning given in brackets: α-Syn (alpha-synuclein), α-Syn-F (fibrillary alpha-synuclein, i.e. alpha-synuclein aggregations), Hoechst (DNA staining), TUJ1 (general neuronal marker), TH (tyrosine hydroxylase) and CC3 (cleaved caspase 3 staining, i.e. cell death marker, showing toxicity).
Cells fixed in 4% paraformaldehyde (Merck Millipore, 1004965000) for 15 min at RT and then washed 3× for 5 min with PBS at RT. Prior to immunostaining, a permeabilization step was performed using 0.05% Triton-X100 solution in PBS for 10 min at 4° C. Cells were then blocked for 1 h at RT with 10% FBS in PBS. Incubation with α-synuclein antibody (NOVUS biologicals, NBP1-05194, 1:1000), α-synuclein filament antibody (Abcam, ab20953, 1:5000) and TUJ1 (Millipore, AB9354, 1:600) was done overnight at 4° C. in blocking buffer. The following day, cells were washed with PBS 3× for 5 min at RT. Then, incubation with the corresponding secondary antibodies, Alexa Fluor anti-chicken 488 (Invitrogen, A-11039, 1:1000), Alexa Fluor anti-mouse IgG1 647 (Invitrogen, A-21240, 1:1000) and Alexa Fluor anti-rabbit 568 (Invitrogen, A11036, 1:1000) was performed for 2 h at RT in blocking buffer. Hoechst 33342 solution (Invitrogen, 62249, 1:1000) was added during this step to stain the nuclei. […]

IL-1b mRNA expression = IL-1b mRNA expression (qPCR) in murine BMDM model; assay type: cell-based; conditions: 10 mM 2-HP, normalized to β-actin, relative to 0 mM
Procedure: The inventors have tested whether 2-HP can act as signal 1 in the activation of the NLRP3 inflammasome in murine bone-barrow derived macrophages (BMDMs). NLRP3 inflammasome activation is thought to play a role in the pathogenesis of neurodegenerative disorders, and increased levels of this inflammasome and of the related cytokine IL-1b have been detected in Parkinson's patients (Guan & Han, 2020). In these experiments, the cells were grown in BMDM growth media and treated with 2-hydroxypyridine (2.5 and 10 mM) for up to 72 hours. Inflammasome activation was evaluated with qPCR for IL-1b expression (normalized to β-actin), considering the fold change relative to 0 mM 2-HP of each time point. There was a 3.2-fold increase in IL-1b mRNA after 3 hours of 10 mM 2-HP treatment, and 1.5-fold increase after 24 hours (FIG. 8).

wildtype mice = test: Adhesive removal test after injection into the brain; assay type: in vivo; conditions: higher 2-HP concentrations, 15 days post-injection, vs PBS
Procedure: The in vivo work testing for effects of 2-HP in a mouse model lead to results from a small-scale 15-day experiment. In this experiment, 2-HP was injected at several concentrations (5, 50 and 100 mM) into the brain of transgenic mice overexpressing human alpha-synuclein, and of wildtype control mice.

[2] = tested on: transgenic mice (Thy1-Syn14 males); conditions: mouse, in vivo
Procedure: Newly formed oligomeric forms are then propagated to the CNS via the vagus nerve.
To control toxicity and set an upper threshold level for the chronic exposure study, the ideal concentration in the animals' drinking water (ad libitum) is determined by testing three different concentrations. As reference, the LD50 value determined in rats is used as a threshold for an entire day. The animals, of an average weight of 28 g, take in […] of 2-HP per day. The second factor to account for is the volume of water a C57BI6/j mouse drinks per day, which varies between 5 mL and 8 mL. With an […] water intake per day, the maximum concentration the inventors use is 695 μg/mL of dissolved 2-HP. However, lower doses are aimed for:
These 3 doses are tested on a total of 48 animals. 24 wild-type and 24 transgenic animals are distributed amongst 12 groups. It is essential to have both genotypes in the study, since it cannot be foreseen how human wild-type alpha-synuclein and 2-HP interact in an in vivo model. Further, short-term and long-term effects are analysed. Additionally, this allows to proceed with the post-mortem analysis of the 14 days cohort, allowing to gather information of the early effects of 2-HP on an in vivo system. The following design is used:
In the in-life phase, all animals are checked regularly. Overall behavior in the cage is checked daily. […]

rats = conditions: oral administration; cited from earlier work
[3] = control, higher concentration of 2-HP (FIG. 3C)

Oc1ccccn1 [2-HP, 2-hydroxypyridine]
dose at which selectively toxic to transgenic alpha-synuclein expressing yeast ([1]; HiTox strains of yeast expressing human alpha-synuclein): 1 mM | toxicity (growth), alpha-synuclein induced ([1]; in presence of galactose, HiTox strains (FIG. 3B)): A toxic dose-response can be observed in the HiTox strains | toxicity (growth), alpha-synuclein not induced ([1]; in presence of raffinose (FIG. 3A)): A toxic dose-response can be observed | lag time of growth curve (control strain; [3]): prolonged | yield of growth curve (control strain; [3]): unaffected | toxicity (growth), control strain (control strain; in presence of galactose, control strain (FIG. 3B)): not in the control strain | LD50 (enteric neurons): around 3 mM | effect on alpha-synuclein aggregation (alpha-synuclein): promotes aggregation | increase in IL-1b mRNA (IL-1b mRNA expression; 3 hours): 3.2 fold | increase in IL-1b mRNA (IL-1b mRNA expression; 24 hours): 1.5 fold | performance in adhesive removal test (sensorimotor function) (wildtype mice): perform worse | alpha-synuclein in ENS [2]: increased accumulation up to aggregation of alpha-synuclein | motor symptoms and PD-like pathology [2]: exacerbation of motor symptoms | LD50 (rats): 124 mg/kg
